Laboratory results: the NIST ThermoML archive (doi:10.1016/j.fluid.2008.09.004)
± gives the expanded uncertainty stated by the source.

Assays:
[1] = molar heat capacity at constant pressure; xn = mol fraction of the nth substance listed; settings: 101 kPa, Liquid, Small sample (50 mg) DSC
[2] = xn = mol fraction of the nth substance listed; settings: 101 kPa, Liquid, Vibrating tube method

CCCCn1cc[n+](C)c1.COS(=O)(=O)[O-] [1-butyl-3-methylimidazolium methyl sulfate] + CCO
Settings	mass density, [2] [kg/m3]	molar heat capacity at constant pressure, [1] [J/K/mol]
293.15 K, x1 = 0.0511	860.9 ± 0.3	128.1 ± 2
293.15 K, x1 = 0.1025	916.2 ± 0.3	143.3 ± 2.2
293.15 K, x1 = 0.199	–	171.7 ± 2.7
293.15 K, x1 = 0.2016	995 ± 0.2	–
293.15 K, x1 = 0.3106	1055 ± 0.2	204.1 ± 3.2
293.15 K, x1 = 0.4058	1093.4 ± 0.2	232.2 ± 3.6
293.15 K, x1 = 0.5057	1124.7 ± 0.2	262.1 ± 4.1
293.15 K, x1 = 0.6005	1147.9 ± 0.2	290.9 ± 4.5
293.15 K, x1 = 0.69	1166.6 ± 0.2	318.2 ± 4.9
293.15 K, x1 = 0.7834	1182.5 ± 0.2	346.9 ± 5.4
293.15 K, x1 = 0.8815	1196.6 ± 0.2	377.1 ± 5.8
293.15 K, x1 = 0.9368	1203.5 ± 0.2	394 ± 6.1
298.15 K, x1 = 0.0511	856.7 ± 0.3	130 ± 2
298.15 K, x1 = 0.1025	912.2 ± 0.3	145.1 ± 2.2
298.15 K, x1 = 0.199	–	173.4 ± 2.7
298.15 K, x1 = 0.2016	991.2 ± 0.2	–
298.15 K, x1 = 0.3106	1051.3 ± 0.2	205.8 ± 3.2
298.15 K, x1 = 0.4058	1089.8 ± 0.2	234 ± 3.6
298.15 K, x1 = 0.5057	1121.2 ± 0.2	263.9 ± 4.1
298.15 K, x1 = 0.6005	1144.5 ± 0.2	292.8 ± 4.5
298.15 K, x1 = 0.69	1163.1 ± 0.2	320.3 ± 5
298.15 K, x1 = 0.7834	1179.1 ± 0.2	349.1 ± 5.4
298.15 K, x1 = 0.8815	1193.2 ± 0.2	379.5 ± 5.9
298.15 K, x1 = 0.9368	1200.2 ± 0.2	396.5 ± 6.1
303.15 K, x1 = 0.0511	852.6 ± 0.3	131.8 ± 2
303.15 K, x1 = 0.1025	908.2 ± 0.3	146.7 ± 2.3
303.15 K, x1 = 0.199	–	174.9 ± 2.7
303.15 K, x1 = 0.2016	987.4 ± 0.2	–
303.15 K, x1 = 0.3106	1047.6 ± 0.2	207.2 ± 3.2
303.15 K, x1 = 0.4058	1086.3 ± 0.2	235.6 ± 3.7
303.15 K, x1 = 0.5057	1117.7 ± 0.2	265.6 ± 4.1
303.15 K, x1 = 0.6005	1141 ± 0.2	294.7 ± 4.6
303.15 K, x1 = 0.69	1159.7 ± 0.2	322.3 ± 5
303.15 K, x1 = 0.7834	1175.7 ± 0.2	351.2 ± 5.4
303.15 K, x1 = 0.8815	1189.9 ± 0.2	381.7 ± 5.9
303.15 K, x1 = 0.9368	1196.9 ± 0.2	398.9 ± 6.2
308.15 K, x1 = 0.0511	848.5 ± 0.3	133.5 ± 2.1
308.15 K, x1 = 0.1025	904.3 ± 0.3	148.3 ± 2.3
308.15 K, x1 = 0.199	–	176.4 ± 2.7
308.15 K, x1 = 0.2016	983.6 ± 0.2	–
308.15 K, x1 = 0.3106	1043.9 ± 0.2	208.6 ± 3.2
308.15 K, x1 = 0.4058	1082.7 ± 0.2	237.1 ± 3.7
308.15 K, x1 = 0.5057	1114.2 ± 0.2	267.3 ± 4.1
308.15 K, x1 = 0.6005	1137.6 ± 0.2	296.5 ± 4.6
308.15 K, x1 = 0.69	1156.3 ± 0.2	324.2 ± 5
308.15 K, x1 = 0.7834	1172.3 ± 0.2	353.3 ± 5.5
308.15 K, x1 = 0.8815	1186.6 ± 0.2	383.9 ± 5.9
308.15 K, x1 = 0.9368	1193.6 ± 0.2	401.2 ± 6.2
313.15 K, x1 = 0.0511	844.4 ± 0.3	135 ± 2.1
313.15 K, x1 = 0.1025	900.2 ± 0.3	149.7 ± 2.3
313.15 K, x1 = 0.199	–	177.6 ± 2.8
313.15 K, x1 = 0.2016	979.8 ± 0.3	–
313.15 K, x1 = 0.3106	1040.3 ± 0.2	209.9 ± 3.3
313.15 K, x1 = 0.4058	1079.1 ± 0.2	238.5 ± 3.7
313.15 K, x1 = 0.5057	1110.7 ± 0.2	268.9 ± 4.2
313.15 K, x1 = 0.6005	1134.1 ± 0.2	298.2 ± 4.6
313.15 K, x1 = 0.69	1152.9 ± 0.2	326.1 ± 5.1
313.15 K, x1 = 0.7834	1169 ± 0.2	355.3 ± 5.5
313.15 K, x1 = 0.8815	1183.3 ± 0.2	386 ± 6
313.15 K, x1 = 0.9368	1190.3 ± 0.2	403.3 ± 6.2
318.15 K, x1 = 0.0511	840.1 ± 0.3	136.6 ± 2.1
318.15 K, x1 = 0.1025	896.1 ± 0.3	151 ± 2.3
318.15 K, x1 = 0.199	–	178.8 ± 2.8
318.15 K, x1 = 0.2016	975.9 ± 0.3	–
318.15 K, x1 = 0.3106	1036.6 ± 0.2	211.2 ± 3.3
318.15 K, x1 = 0.4058	1075.5 ± 0.2	239.8 ± 3.7
318.15 K, x1 = 0.5057	1107.2 ± 0.2	270.5 ± 4.2
318.15 K, x1 = 0.6005	1130.7 ± 0.2	299.9 ± 4.6
318.15 K, x1 = 0.69	1149.5 ± 0.2	327.9 ± 5.1
318.15 K, x1 = 0.7834	1165.6 ± 0.2	357.3 ± 5.5
318.15 K, x1 = 0.8815	1180 ± 0.2	388 ± 6
318.15 K, x1 = 0.9368	1187 ± 0.2	405.4 ± 6.3

CCCCn1cc[n+](C)c1.F[B-](F)(F)F [1-butyl-3-methylimidazolium tetrafluoroborate] + CCO
Settings	mass density, [2] [kg/m3]	molar heat capacity at constant pressure, [1] [J/K/mol]
293.15 K, x1 = 0.0987	903 ± 0.3	150.5 ± 2.3
293.15 K, x1 = 0.1923	976.5 ± 0.2	174.4 ± 2.7
293.15 K, x1 = 0.3004	1037.8 ± 0.2	197.8 ± 3.1
293.15 K, x1 = 0.3885	1075.8 ± 0.2	219.8 ± 3.4
293.15 K, x1 = 0.4865	1108.8 ± 0.2	240.1 ± 3.7
293.15 K, x1 = 0.573	1132.8 ± 0.2	258.3 ± 4
293.15 K, x1 = 0.6738	1155.4 ± 0.2	281.8 ± 4.4
293.15 K, x1 = 0.7531	1170.9 ± 0.2	300.8 ± 4.7
293.15 K, x1 = 0.8821	1191.8 ± 0.2	330.9 ± 5.1
298.15 K, x1 = 0.0987	898.9 ± 0.3	150 ± 2.3
298.15 K, x1 = 0.1923	972.5 ± 0.3	173.6 ± 2.7
298.15 K, x1 = 0.3004	1033.9 ± 0.2	198.8 ± 3.1
298.15 K, x1 = 0.3885	1071.9 ± 0.2	219.6 ± 3.4
298.15 K, x1 = 0.4865	1105 ± 0.2	241.2 ± 3.7
298.15 K, x1 = 0.573	1129.1 ± 0.2	259.7 ± 4
298.15 K, x1 = 0.6738	1151.7 ± 0.2	283.5 ± 4.4
298.15 K, x1 = 0.7531	1167.2 ± 0.2	302.6 ± 4.7
298.15 K, x1 = 0.8821	1188.2 ± 0.2	333 ± 5.2
303.15 K, x1 = 0.0987	894.8 ± 0.3	149.9 ± 2.3
303.15 K, x1 = 0.1923	968.5 ± 0.3	173.5 ± 2.7
303.15 K, x1 = 0.3004	1030 ± 0.2	199.7 ± 3.1
303.15 K, x1 = 0.3885	1068 ± 0.2	219.9 ± 3.4
303.15 K, x1 = 0.4865	1101.2 ± 0.2	242.3 ± 3.8
303.15 K, x1 = 0.573	1125.3 ± 0.2	261.1 ± 4
303.15 K, x1 = 0.6738	1148 ± 0.2	285.2 ± 4.4
303.15 K, x1 = 0.7531	1163.5 ± 0.2	304.3 ± 4.7
303.15 K, x1 = 0.8821	1184.6 ± 0.2	335.1 ± 5.2
308.15 K, x1 = 0.0987	890.8 ± 0.3	150.3 ± 2.3
308.15 K, x1 = 0.1923	964.6 ± 0.3	174.2 ± 2.7
308.15 K, x1 = 0.3004	1026.1 ± 0.2	200.6 ± 3.1
308.15 K, x1 = 0.3885	1064.2 ± 0.2	220.6 ± 3.4
308.15 K, x1 = 0.4865	1097.4 ± 0.2	243.4 ± 3.8
308.15 K, x1 = 0.573	1121.6 ± 0.2	262.4 ± 4.1
308.15 K, x1 = 0.6738	1144.4 ± 0.2	286.9 ± 4.4
308.15 K, x1 = 0.7531	1159.9 ± 0.2	306.2 ± 4.7
308.15 K, x1 = 0.8821	1181 ± 0.2	337.2 ± 5.2
313.15 K, x1 = 0.0987	886.6 ± 0.3	151.1 ± 2.3
313.15 K, x1 = 0.1923	960.5 ± 0.3	175.6 ± 2.7
313.15 K, x1 = 0.3004	1022.2 ± 0.2	201.4 ± 3.1
313.15 K, x1 = 0.3885	1060.4 ± 0.2	221.7 ± 3.4
313.15 K, x1 = 0.4865	1093.6 ± 0.2	244.4 ± 3.8
313.15 K, x1 = 0.573	1117.9 ± 0.2	263.7 ± 4.1
313.15 K, x1 = 0.6738	1140.7 ± 0.2	288.5 ± 4.5
313.15 K, x1 = 0.7531	1156.3 ± 0.2	308 ± 4.8
313.15 K, x1 = 0.8821	1177.4 ± 0.2	339.3 ± 5.3
318.15 K, x1 = 0.0987	882.4 ± 0.3	152.4 ± 2.4
318.15 K, x1 = 0.1923	956.5 ± 0.3	177.8 ± 2.8
318.15 K, x1 = 0.3004	1018.2 ± 0.2	202.3 ± 3.1
318.15 K, x1 = 0.3885	1056.5 ± 0.2	223.3 ± 3.5
318.15 K, x1 = 0.4865	1089.8 ± 0.2	245.6 ± 3.8
318.15 K, x1 = 0.573	1114.2 ± 0.2	265.1 ± 4.1
318.15 K, x1 = 0.6738	1137.1 ± 0.2	290.1 ± 4.5
318.15 K, x1 = 0.7531	1152.7 ± 0.2	309.9 ± 4.8
318.15 K, x1 = 0.8821	1173.8 ± 0.2	341.4 ± 5.3
